From paper PMC12064818, “A general assay platform to study protein pharmacology using ligand-dependent structural dynamics” (Nature Communications, 2025)
Read-outs that look alike come from different tables or passages of the source.

Tests used:
[1] = target: T1, NLuc (Oplophorus gracilirostris, UniProt Q9GV45, A31E/A60N/A81I/F95D/I117V/K70R/L54V/L99Q/M102K/N193R/P142E/Q151K/Q38R/Q45L/V71I/Y165I); format: biochemical; details: - ATP
T1 construct: His tag (inferred from IMAC purification); made in house; host or cells: E. coli
How it was run: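 Test compounds added to 1 nM NLuc in PBS with 0.05% IGEPAL, ± ATP. Nano-Glo reagent added and incubated 10 min before luminescence read.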

[2] = target: P. pyralis FLuc (Photinus pyralis, UniProt P08659); assay: FLuc enzymatic luminescence assay, P. pyralis FLuc; format: biochemical; details: FLuc enzymatic assay; for IC50: read-out: IC50 or SDR50 (mM) FLuc E
How it was run: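 Runs with and without 10 µM ATP: compounds were pre-incubated with FLuc (1–10 nM, PBS pH 7.4) at ambient temperature, light-protected, for 30–60 min. Luminescence was imaged 5 min after adding 10 µM D-luciferin (final). Inhibition was scaled between DMSO neutral and no-enzyme controls.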

[3] = target: T2, FLuc-C-HiBiT (Photinus pyralis, UniProt P08659); assay: biochemical; details: enzyme activity, 10 uM ATP; read-out: IC50 or SDR50 (mM) / FLuc E
T2 construct: firefly luciferase with C-terminal HiBiT tag, E. coli expressed

[4] = target: FLuc-C-NLuc (firefly luciferase) (Photinus pyralis, UniProt P08659, form not given/L550V); assay: SDR assay, FLuc-C-NLuc; details: - ATP
[5] = target: FLuc-C-HiBiT (firefly luciferase) (Photinus pyralis, UniProt P08659, form not given/L550V); assay: SDR assay, FLuc-C-HiBiT; details: SDR max. response, clade S
FLuc-C-HiBiT (firefly luciferase), sequence (P08659 2-550 L550V, form open): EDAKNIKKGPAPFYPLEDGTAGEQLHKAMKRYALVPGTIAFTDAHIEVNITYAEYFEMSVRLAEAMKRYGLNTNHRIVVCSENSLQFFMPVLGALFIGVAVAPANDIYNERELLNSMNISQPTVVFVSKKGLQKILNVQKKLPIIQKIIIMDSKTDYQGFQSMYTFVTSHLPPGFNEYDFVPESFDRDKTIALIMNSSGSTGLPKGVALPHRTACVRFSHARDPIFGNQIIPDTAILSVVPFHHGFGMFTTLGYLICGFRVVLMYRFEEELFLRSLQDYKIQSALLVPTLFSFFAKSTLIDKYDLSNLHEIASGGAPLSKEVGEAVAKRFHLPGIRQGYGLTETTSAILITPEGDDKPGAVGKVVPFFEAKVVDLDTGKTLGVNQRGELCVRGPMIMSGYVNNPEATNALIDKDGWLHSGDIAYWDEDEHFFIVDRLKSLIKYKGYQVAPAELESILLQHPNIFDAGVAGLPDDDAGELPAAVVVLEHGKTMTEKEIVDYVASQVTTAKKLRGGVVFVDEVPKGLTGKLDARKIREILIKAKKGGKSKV

T1 sequence (Q9GV45 other isoform, or with tags, fused parts or gaps with the stated changes): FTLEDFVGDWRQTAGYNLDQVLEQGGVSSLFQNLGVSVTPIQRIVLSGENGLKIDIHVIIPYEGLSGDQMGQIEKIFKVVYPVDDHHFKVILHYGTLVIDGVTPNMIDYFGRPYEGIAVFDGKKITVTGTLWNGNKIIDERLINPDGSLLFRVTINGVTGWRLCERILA
T2 sequence (P08659 whole entry, looked up): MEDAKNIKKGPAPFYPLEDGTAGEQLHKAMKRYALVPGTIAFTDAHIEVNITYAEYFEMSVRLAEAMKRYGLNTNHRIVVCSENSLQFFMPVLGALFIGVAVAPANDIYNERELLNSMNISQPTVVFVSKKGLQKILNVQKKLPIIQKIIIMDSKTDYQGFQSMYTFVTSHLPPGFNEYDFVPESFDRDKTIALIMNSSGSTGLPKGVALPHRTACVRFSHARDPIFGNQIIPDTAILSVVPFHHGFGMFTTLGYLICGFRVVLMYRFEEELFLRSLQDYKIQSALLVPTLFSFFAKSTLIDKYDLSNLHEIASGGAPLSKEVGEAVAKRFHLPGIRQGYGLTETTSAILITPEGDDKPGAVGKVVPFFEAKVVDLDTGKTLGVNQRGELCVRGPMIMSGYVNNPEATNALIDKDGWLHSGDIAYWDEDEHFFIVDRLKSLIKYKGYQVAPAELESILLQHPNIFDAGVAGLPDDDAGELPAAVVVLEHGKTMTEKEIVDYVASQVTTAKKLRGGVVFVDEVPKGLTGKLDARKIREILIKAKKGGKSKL
P. pyralis FLuc, sequence (P08659 whole entry): as the sequence (P08659 whole entry, looked up) above
FLuc-C-NLuc (firefly luciferase), sequence (P08659 2-550 L550V, form open): as the sequence (P08659 2-550 L550V, form open) above

SMILES	Efficacy (%) NLuc (- ATP) [1]	Efficacy (%) FLuc E ([2]; Clade S follow-up)	pIC50 or pSDR50 FLuc E ([2]; Clade S follow-up)	IC50 ([2]; Clade S follow-up)	IC50 [3]	Efficacy (%) FLuc-C-NLuc SDR (-ATP) [4]	% Activity (max response, + ATP) [5]	% Activity (max response, - ATP) [5]	pIC50 or pSDR50 FLuc E [2]	IC50 [2]
O=C(Nc1ccc(F)c(F)c1)C1CCN(C(=O)c2ncn3c2COC(c2ccccc2)C3)CC1 (stereo not shown) [NCGC00449916-01]	0.00%	-98.00%	6.11	0.00078 mM	0.000989 mM	0.00%	236.10%	8.48%	–	–
Cc1cccc(NC(=O)C2CCN(C(=O)c3ncn4c3COC(c3ccccc3)C4)CC2)c1 (stereo not shown) [NCGC00449902-01]	0.00%	-97.06%	5.66	0.00221 mM	0.00248 mM	0.00%	372.05%	0.00%	–	–
O=C(NCC1CC1)C1CCN(C(=O)c2ncn3c2COC(c2ccccc2)C3)CC1 (stereo not shown) [NCGC00449799-01]	0.00%	-97.90%	–	–	0.007 mM	0.00%	355.70%	0.00%	5.11	0.00784 mM
CC(NC(=O)C1CCN(C(=O)c2ncn3c2COC(c2ccccc2)C3)CC1)c1ccc(F)cc1 (stereo not shown) [NCGC00449793-01]	0.00%	-92.83%	–	–	0.00495 mM	0.00%	272.56%	0.00%	5.16	0.00699 mM
O=C(Nc1ccccc1)C1CCN(C(=O)c2ncn3c2COC(c2ccccc2)C3)CC1 (stereo not shown) [NCGC00449901-01]	0.00%	-101.51%	5.86	0.0014 mM	0.00157 mM	0.00%	354.42%	0.00%	–	–
CC(C)c1ccc(NC(=O)C2CCN(C(=O)c3ncn4c3COC(c3ccccc3)C4)CC2)cc1 (stereo not shown) [NCGC00449909-01]	0.00%	-93.68%	5.51	0.00312 mM	0.00351 mM	0.00%	370.54%	0.00%	–	–
O=C(NCc1cccs1)C1CCN(C(=O)c2ncn3c2COC(c2ccccc2)C3)CC1 (stereo not shown) [NCGC00449792-01]	0.00%	-100.37%	–	–	0.00248 mM	0.00%	209.49%	17.67%	5.51	0.00312 mM
O=C(NCc1ccncc1)C1CCN(C(=O)c2ncn3c2COC(c2ccccc2)C3)CC1 (stereo not shown) [NCGC00449800-01]	0.00%	-91.84%	–	–	0.00176 mM	0.00%	375.34%	0.00%	6.01	0.00099 mM
COc1ccc(NC(=O)C2CCN(C(=O)c3ncn4c3COC(c3ccccc3)C4)CC2)cc1OC (stereo not shown) [NCGC00449911-01]	11.18%	-91.83%	5.51	0.00312 mM	0.00351 mM	0.00%	240.56%	15.50%	–	–
Cc1ccc(C2Cn3cnc(C(=O)N4CCC(C(=O)NCc5ccco5)CC4)c3CO2)cc1 (stereo not shown) [NCGC00449893-01]	0.00%	-75.71%	5.01	0.00988 mM	0.00881 mM	0.00%	104.01%	0.00%	–	–
O=C(NCc1ccc2c(c1)OCO2)C1CCN(C(=O)c2ncn3c2COC(c2ccccc2)C3)CC1 (stereo not shown) [NCGC00449781-01]	0.00%	-80.20%	–	–	0.007 mM	0.00%	220.59%	0.00%	5.51	0.00312 mM
